Target: S. pneumoniae Topoisomerase IV ATPase (ParE) (Streptococcus pneumoniae serotype 4, UniProt Q59961)
Assay: S. pneumoniae Topoisomerase IV ATPase inhibition
Format: biochemical
Settings: values marked * are an average of two or more data points, read-out: % Inh (13 μM) of S. pneumoniae Topoisomerase IV ATPase
How it was run: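 Phosphate release by ParE ATPase from S. pneumoniae read colorimetrically (malachite green, 650 nm), enzyme 1.25 nM, ATP 160 μM, salmon sperm DNA present, buffer 20 mM Tris pH 8.0 with 8 mM MgCl2. IC50 over 10 compound concentrations, EDTA (20 μM) and DMSO controls defining inhibition range.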

S. pneumoniae Topoisomerase IV ATPase (ParE), sequence (Q59961 whole entry): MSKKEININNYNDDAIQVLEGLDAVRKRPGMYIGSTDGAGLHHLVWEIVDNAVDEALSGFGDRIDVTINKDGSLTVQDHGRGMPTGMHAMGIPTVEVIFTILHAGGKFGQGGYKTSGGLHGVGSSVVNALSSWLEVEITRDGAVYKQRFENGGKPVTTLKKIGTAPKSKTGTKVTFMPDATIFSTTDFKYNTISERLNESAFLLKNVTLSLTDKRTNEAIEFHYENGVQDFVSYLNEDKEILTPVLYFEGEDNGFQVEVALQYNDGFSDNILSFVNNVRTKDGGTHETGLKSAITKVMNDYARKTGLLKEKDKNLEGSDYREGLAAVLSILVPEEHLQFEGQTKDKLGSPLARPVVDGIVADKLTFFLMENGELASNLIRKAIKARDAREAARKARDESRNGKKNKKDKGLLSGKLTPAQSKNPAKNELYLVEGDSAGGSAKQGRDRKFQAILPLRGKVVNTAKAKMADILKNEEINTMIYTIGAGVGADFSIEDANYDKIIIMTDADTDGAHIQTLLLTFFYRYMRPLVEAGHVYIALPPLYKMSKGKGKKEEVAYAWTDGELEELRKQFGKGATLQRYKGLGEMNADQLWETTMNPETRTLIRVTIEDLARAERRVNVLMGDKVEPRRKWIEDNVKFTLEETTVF

Row | SMILES | inhibition at 13 µM [%]
1 | COc1cc(Nc2ncc(-c3ccc(C(=O)O)s3)c(-n3nc(C(F)(F)F)cc3C)n2)cc(C(F)(F)F)c1 [Example 883, 5-(2-(3-methoxy-5-(trifluoromethyl)phenylamino)-4-(5-methyl-3-(trifluoromethyl)-1H-pyrazol-1-yl)pyrimidin-5-yl)thiophene-2-carboxylic acid] | 99
2 | COc1cc(Nc2ncc(-c3cccnc3)c(-n3nc(C(F)(F)F)cc3C)n2)cc(C(F)(F)F)c1 [Example 884, N-(3-methoxy-5-(trifluoromethyl)phenyl)-4-(5-methyl-3-(trifluoromethyl)-1H-pyrazol-1-yl)-5-(pyridin-3-yl)pyrimidin-2-amine] | 100
3 | COc1cc(Nc2ncc(-c3cnc(OC)nc3)c(-n3nc(C(F)(F)F)cc3C)n2)cc(C(F)(F)F)c1 [Example 885, 2′-methoxy-N-(3-methoxy-5-(trifluoromethyl)phenyl)-4-(5-methyl-3-(trifluoromethyl)-1H-pyrazol-1-yl)-5,5′-bipyrimidin-2-amine] | 100
4 | COc1cc(F)cc(Nc2ncc(-c3ccc(C(=O)O)s3)c(-n3ccc(C(F)(F)F)n3)n2)c1 [Example 887, 5-(2-(3-fluoro-5-methoxyphenylamino)-4-(3-(trifluoromethyl)-1H-pyrazol-1-yl)pyrimidin-5-yl)thiophene-2-carboxylic acid] | 100
5 | N#Cc1cc(-c2cnc(Nc3ccc(F)c(Cl)c3)nc2-n2ccc(C(F)(F)F)n2)ccn1 [Example 890, 4-(2-(3-chloro-4-fluorophenylamino)-4-(3-(trifluoromethyl)-1H-pyrazol-1-yl)pyrimidin-5-yl)picolinonitrile] | 91
6 | COc1cc(F)cc(Nc2ncc(-c3ccc(C(=O)O)o3)c(-n3ccc(C(F)(F)F)n3)n2)c1 [Example 892, 5-(2-(3-fluoro-5-methoxyphenylamino)-4-(3-(trifluoromethyl)-1H-pyrazol-1-yl)pyrimidin-5-yl)furan-2-carboxylic acid] | 100
7 | COc1cc(F)cc(Nc2ncc(-c3cccc(C(=O)O)c3)c(-n3ccc(C(F)(F)F)n3)n2)c1 [Example 893, 3-(2-(3-fluoro-5-methoxyphenylamino)-4-(3-(trifluoromethyl)-1H-pyrazol-1-yl)pyrimidin-5-yl)benzoic acid] | 99
8 | COc1cc(F)cc(Nc2ncc(-c3cnc(OC)c(C(=O)NS(C)(=O)=O)c3)c(-n3ccc(C(F)(F)F)n3)n2)c1 [Example 897, 5-(2-(3-fluoro-5-methoxyphenylamino)-4-(3-(trifluoromethyl)-1H-pyrazol-1-yl)pyrimidin-5-yl)-2-methoxy-N-(methylsulfonyl)nicotinamide] | 100
9 | COc1ncc(-c2cnc(Nc3cc(C)cc(C)c3)nc2-n2ccc(C(F)(F)F)n2)cc1C(=O)NS(C)(=O)=O [Example 898, 5-(2-(3,5-dimethylphenylamino)-4-(3-(trifluoromethyl)-1H-pyrazol-1-yl)pyrimidin-5-yl)-2-methoxy-N-(methylsulfonyl)nicotinamide] | 100
10 | COc1ncc(-c2cnc(Nc3cc(C)cc(C)c3)nc2-n2nc(C(F)(F)F)cc2C)cc1C(=O)NS(C)(=O)=O [Example 899, 5-(2-(3,5-dimethylphenylamino)-4-(5-methyl-3-(trifluoromethyl)-1H-pyrazol-1-yl)pyrimidin-5-yl)-2-methoxy-N-(methylsulfonyl)nicotinamide] | 97
11 | COc1cc(F)cc(Nc2ncc(-c3cnc(OC)c(C(=O)NS(C)(=O)=O)c3)c(-n3nc(C(F)(F)F)cc3C)n2)c1 [Example 900, 5-(2-(3-fluoro-5-methoxyphenylamino)-4-(5-methyl-3-(trifluoromethyl)-1H-pyrazol-1-yl)pyrimidin-5-yl)-2-methoxy-N-(methylsulfonyl)nicotinamide] | 100
12 | COc1cc(Nc2ncc(-c3cnc(OC)c(C(=O)NS(C)(=O)=O)c3)c(-n3ccc(C(F)(F)F)n3)n2)cc(OC)c1 [Example 901, 5-(2-(3,5-dimethoxyphenylamino)-4-(3-(trifluoromethyl)-1H-pyrazol-1-yl)pyrimidin-5-yl)-2-methoxy-N-(methylsulfonyl)nicotinamide] | 97
13 | COc1cc(Nc2ncc(-c3cnc(OC)c(C(=O)NS(C)(=O)=O)c3)c(-n3nc(C(F)(F)F)cc3C)n2)cc(C(F)(F)F)c1 [Example 902, 2-methoxy-5-(2-(3-methoxy-5-(trifluoromethyl)phenylamino)-4-(5-methyl-3-(trifluoromethyl)-1H-pyrazol-1-yl)pyrimidin-5-yl)-N-(methylsulfonyl)nicotinamide] | 97
14 | COc1cc(Nc2ncc(-c3cnc(OC)c(C(=O)NS(C)(=O)=O)c3)c(-n3nc(C(F)(F)F)cc3C)n2)cc(OC)c1 [Example 909, 5-(2-(3,5-dimethoxyphenylamino)-4-(5-methyl-3-(trifluoromethyl)-1H-pyrazol-1-yl)pyrimidin-5-yl)-2-methoxy-N-(methylsulfonyl)nicotinamide] | 100
15 | COc1cc(Cl)c(C)cc1Nc1ncc(-c2cccc(/C=C/C(=O)O)c2)c(NCCCN(C)C)n1 [Example 911, (E)-3-(3-(2-(4-chloro-2-methoxy-5-methylphenylamino)-4-(3-(dimethylamino)propylamino)pyrimidin-5-yl)phenyl)acrylic acid] | 58
16 | COCCCNc1nc(Nc2ccc(F)c(Cl)c2)ncc1-c1nc(C(=O)O)cs1 [Example 912, 2-(2-(3-chloro-4-fluorophenylamino)-4-(3-methoxypropylamino)pyrimidin-5-yl)thiazol-4-carboxylic acid] | 99
17 | COc1cc(Nc2ncc(-c3cncc(C(=O)O)c3)c(-n3nc(C(F)(F)F)cc3C)n2)cc(C(F)(F)F)c1 [Example 913, 5-(2-(3-methoxy-5-(trifluoromethyl)phenylamino)-4-(5-methyl-3-(trifluoromethyl)-1H-pyrazol-1-yl)pyrimidin-5-yl)nicotinic acid] | 100
18 | COc1cc(F)cc(Nc2ncc(-c3cncc(C(=O)O)c3)c(-n3ccc(C(F)(F)F)n3)n2)c1 [Example 914, 5-(2-(3-fluoro-5-methoxyphenylamino)-4-(3-(trifluoromthyl)-1H-pyrazol-1-yl)pyrimidin-5-yl)nicotinic acid] | 100
19 | COc1cc(F)cc(Nc2ncc(-c3cnc(OC)c(C(=O)O)c3)c(-n3nc(C(F)(F)F)cc3C)n2)c1 [Example 915, 5-(2-(3-fluoro-5-methoxyphenylamino)-4-(5-methyl-3-(trifluoromethyl)-1H-pyrazol-1-yl)pyrimidin-5-yl)-2-methoxynicotinic acid] | 100
20 | COc1cc(F)cc(Nc2ncc(-c3cncc(C(=O)O)c3)c(-n3nc(C(F)(F)F)cc3C)n2)c1 [Example 916, 5-(2-(3-fluoro-5-methoxyphenylamino)-4-(5-methyl-3-(trifluoromethyl)-1H-pyrazol-1-yl)pyrimidin-5-yl)nicotinic acid] | 99
21 | COc1ncc(-c2cnc(Nc3cc(Cl)cc(C#N)c3)nc2-n2ccc(C(F)(F)F)n2)cc1C(=O)O [Example 917, 5-(2-(3-chloro-5-cyanophenylamino)-4-(3-(trifluoromethyl)-1H-pyrazol-1-yl)pyrimidin-5-yl)-2-methoxynicotinic acid] | 100
22 | COc1cc(Nc2ncc(-c3cc(C(=O)O)c(=O)n(C)c3)c(-n3nc(C(F)(F)F)cc3C)n2)cc(OC)c1 [Example 918, 5-(2-(3,5-dimethoxyphenylamino)-4-(5-methyl-3-(trifluoromnethyl)-1H-pyrazol-1-yl)poyrimidin-5-yl)-1-methyl-2-oxo-1,2-dihydropyridine-3-carboxylic acid] | 100
23 | CCn1cc(-c2cnc(Nc3cc(OC)cc(OC)c3)nc2-n2nc(C(F)(F)F)cc2C)cc(C(=O)O)c1=O [Example 919, 5-(2-(3,5-dimethoxyphenylamino)-4-(5-methyl-3-(trifluoromethyl)-1H-pyrazol-1-yl)pyrimidin-5-yl)-1-ethyl-2-oxo-1,2-dihydropyridine-3-carboxylic acid] | 99
24 | COc1cc(F)cc(Nc2ncc(-c3cc(C(=O)O)c(=O)n(C)c3)c(-n3ccc(C(F)(F)F)n3)n2)c1 [Example 920, 5-(2-(3-fluoro-5-methoxyphenylamino)-4-(3-(trifluoromethyl)-1H-pyrazol-1-yl)pyrimidin-5-yl)-1-methyl-2-oxo-1,2-dihydropyridine-3-carboxylic acid] | 100
25 | COc1cc(F)cc(Nc2ncc(-c3cc(C(=O)O)c(=O)n(C)c3)c(-n3nc(C(F)(F)F)cc3C)n2)c1 [Example 921, 5-(2-(3-fluoro-5-methoxyphenylamino)-4-(5-methyl-3-(trifluoromethyl)-1H-pyrazol-1-yl)pyrimidin-5-yl)-1-methyl-2-oxo-1,2-dihydropyridine-3-carboxylic acid] | 99
26 | Cc1cc(C)cc(Nc2ncc(-c3cc(C(=O)O)c(=O)n(C)c3)c(-n3ccc(C(F)(F)F)n3)n2)c1 [Example 922, 5-(2-(3,5-dimethylphenylamino)-4-(3-(trifluoromethyl)-1H-pyrazol-1-yl)pyrimidin-5-yl)-1-methyl-2-oxo-1,2-dihydropyridine-3-carboxylic acid] | 100
27 | COc1cc(F)cc(Nc2ncc(-c3cnc(OC)c(C(=O)O)c3)c(-n3ccc(C(F)(F)F)n3)n2)c1 [Example 923, 5-(2-(3-fluoro-5-methoxyphenylamino)-4-(3-(trifluoromethyl)-1H-pyrazol-1-yl)pyrimidin-5-yl)-2-methoxynicotinic acid] | 100
28 | Cc1cc(C(F)(F)F)nn1-c1nc(Nc2ccc(F)c(Cl)c2)ncc1-c1cncc(C(N)=O)c1 [Example 924, 5-(2-(3-chloro-4-fluorophenylamino)-4-(5-methyl-3-(trifluoromethyl)-1H-pyrazol-1-yl)pyrimidin-5-yl)nicotinamide] | 97

From patent US20100137313A1 (ASTRAZENECA AB, priority 2008, published 2010)
